In patent publication US6049003A, “Azoamidine compound” (Wako Pure Chemical Industries, Ltd., priority 1998, dated 2000):

Key:
[1] = solution polymerization of acrylamide with the azoamidine compound as initiator (Table 1); conditions: acrylamide in water, 50° C.
Method: Acrylamide (20 g) was dissolved in 380 g of distilled water and 0.01 g of the azoamidine compound obtained in Example 1 was added thereto as a polymerization initiator. The reaction solution was heated at 50° C. with stirring under nitrogen gas atmosphere to cause polymerization reaction. After the polymerization reaction was started, samplings of the reaction solution were conducted at predetermined intervals, and the samples were precipitated by methanol to recover the produced polymer, followed by drying. The polymerization rates at each sampling time were measured.
The same polymerization reaction as Example 4 was conducted except for using azoamidine compounds, in which an α-amino acid residue as introduced, of 2,2'-azobis(N-carboxymethyl-2-methylpropionamidine) [drawing 10] or 2,2'-azobis[N-(1-carboxyethyl)-2-methylpropionamidine] [drawing 11] as a polymerization initiator.

[2] = emulsion polymerization of styrene with the azoamidine compound as initiator (Table 2); conditions: for Polymerization Rate(%): sodium dodecyl sulfate
Method: Distilled water (400 g), sodium dodecyl sulfate (4 g) and azoamidine compound (0.5 g) obtained in Example 1 were mixed with one another and were stirred to give a solution, and 200 g of styrene monomer was added thereto, followed by stirring to make emulsion. The resultant was subjected to polymerization reaction at 50° C. with stirring under nitrogen gas atmosphere. After the polymerization reaction was started, samplings of the reaction solution were conducted at predetermined intervals, and the samples were precipitated by methanol to recover the produced polymer, followed by drying. The polymerization rates at each sampling time were measured.
The same emulsion polymerization as Example 5 was conducted except for using a typical known azoamidine compound, of 2,2'-azobis(2-methylpropionamidine) dihydrochloride as a polymerization initiator.

[3] = decomposition rate constant at 50° C. (Table 1); assay type: physicochemical
[4] = 10 hours half life temperature; assay type: physicochemical
[5] = comparison of solubility in various kinds of solvents (Table 3); assay type: physicochemical
[6] = 50° C., polymerization time 1 H
[7] = 50° C., polymerization time 1.5 H
[8] = 50° C., polymerization time 2 H
[9] = 50° C., polymerization time 3 H
[10] = 50° C., polymerization time 4 H
[11] = 50° C., polymerization time 5 H
[12] = 50° C., polymerization time 6 H

solubility in Water [5] [%]	solubility in Methanol (in words) ([5]; Methanol)	SMILES	Polymerization Rate(%) ([1]; polymerization time 1 H)	Polymerization Rate(%) ([1]; polymerization time 1.5 H)	Polymerization Rate(%) ([1]; polymerization time 2 H)	Polymerization Rate(%) ([1]; polymerization time 3 H)	Polymerization Rate(%) ([1]; polymerization time 4 H)	Polymerization Rate(%) ([1]; polymerization time 5 H)	Polymerization Rate(%) ([1]; polymerization time 6 H)	Polymerization Rate(%) [2, 6] [%]	Polymerization Rate(%) [2, 7] [%]	Polymerization Rate(%) [2, 8] [%]	Polymerization Rate(%) [2, 9] [%]	Polymerization Rate(%) [2, 10] [%]	Polymerization Rate(%) [2, 11] [%]	Polymerization Rate(%) [2, 12] [%]	also measured
0.4	insoluble	CC(C)(N=NC(C)(C)C(=N)NCC(=O)O)C(=N)NCC(=O)O [Reference Example 1, 2,2'-azobis(N-carboxymethyl-2-methylpropionamidine)]	15.8	21.2	25.0	32.5	37.2	38.3	41.2								
0.8	insoluble	CC(NC(=N)C(C)(C)N=NC(C)(C)C(=N)NC(C)C(=O)O)C(=O)O (stereo not drawn) [Reference Example 2, 2,2'-azobis[N-(1-carboxyethyl)-2-methylpropionamidine]]	19.0	24.2	28.8	33.8	38.5	46.3	47.1								
		CC(C)(N=NC(C)(C)C(=N)N)C(=N)N.Cl.Cl [Reference Example 3, 2,2'-azobis(2-methylpropionamidine) dihydrochloride]								32.0	37.1	69.9	88.4	91.4	93.1	92.2	dead end phenomenon in emulsion polymerization ([2]; 50° C.): dead end phenomenon was observed; polymerization rate at 6 hour polymerization and later (in words) ([2]; 6 hours and later): reduced

SMILES	solubility in Water [5] [%]	solubility in Methanol (in words) ([5]; Methanol)	Polymerization Rate(%) ([1]; polymerization time 1 H)	Polymerization Rate(%) ([1]; polymerization time 1.5 H)	Polymerization Rate(%) ([1]; polymerization time 2 H)	Polymerization Rate(%) ([1]; polymerization time 3 H)	Polymerization Rate(%) ([1]; polymerization time 4 H)	Polymerization Rate(%) ([1]; polymerization time 5 H)	Polymerization Rate(%) ([1]; polymerization time 6 H)	Polymerization Rate(%) [2, 6] [%]	Polymerization Rate(%) [2, 7] [%]	Polymerization Rate(%) [2, 8] [%]	Polymerization Rate(%) [2, 9] [%]	Polymerization Rate(%) [2, 10] [%]	Polymerization Rate(%) [2, 11] [%]	Polymerization Rate(%) [2, 12] [%]	also measured
CC(C)(N=NC(C)(C)C(=N)NCCC(=O)O)C(=N)NCCC(=O)O.O.O [Example 1, 2,2'-azobis[N-(2-carboxyethyl)-2-methylpropionamidine] dihydrate]	10.0		6.7	22.3	34.2	53.3	64.8	70.6	74.7	25.2	51.0	74.3	89.2	93.5	94.4	95.4	Decomposition Rate Constant at 50° C. [3]: 7.3e-06 s⁻¹; 10 hours half life temperature [4]: 57 °C; solubility in Methanol ([5]; Methanol): 36.9%
